Data published in ChEMBL document CHEMBL1145144, “Structure-based design of cycloamide-urethane-derived novel inhibitors of human brain memapsin 2 (beta-secretase)” (Bioorg Med Chem Lett, 2005).
“And” between values parts separate entries of the source, which are not always exact repeats. Equal values may be shown once.

How the values were obtained:
[1] = molecular target: Beta-secretase 1 (Homo sapiens, UniProt P56817); assay: Binding affinity for human brain memapsin 2
[2] = molecular target: T1, Beta-secretase 2 (Homo sapiens, UniProt Q9Y5Z0); assay: Binding affinity for human brain memapsin 1
T1 sequence (Q9Y5Z0 whole entry): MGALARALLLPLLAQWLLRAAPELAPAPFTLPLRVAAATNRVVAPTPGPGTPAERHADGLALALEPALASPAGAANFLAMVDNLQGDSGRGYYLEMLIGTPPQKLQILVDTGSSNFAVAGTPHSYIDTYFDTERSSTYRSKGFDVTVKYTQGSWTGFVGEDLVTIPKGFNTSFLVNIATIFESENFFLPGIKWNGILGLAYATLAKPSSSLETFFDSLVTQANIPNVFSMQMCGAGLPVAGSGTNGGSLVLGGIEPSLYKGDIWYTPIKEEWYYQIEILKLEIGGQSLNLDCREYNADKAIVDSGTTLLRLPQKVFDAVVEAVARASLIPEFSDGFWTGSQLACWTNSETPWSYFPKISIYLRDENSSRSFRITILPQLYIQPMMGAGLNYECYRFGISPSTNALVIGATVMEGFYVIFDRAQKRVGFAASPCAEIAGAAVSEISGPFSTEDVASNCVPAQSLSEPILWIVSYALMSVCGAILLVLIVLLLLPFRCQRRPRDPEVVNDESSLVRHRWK

Beta-secretase 1, sequence (P56817 whole entry): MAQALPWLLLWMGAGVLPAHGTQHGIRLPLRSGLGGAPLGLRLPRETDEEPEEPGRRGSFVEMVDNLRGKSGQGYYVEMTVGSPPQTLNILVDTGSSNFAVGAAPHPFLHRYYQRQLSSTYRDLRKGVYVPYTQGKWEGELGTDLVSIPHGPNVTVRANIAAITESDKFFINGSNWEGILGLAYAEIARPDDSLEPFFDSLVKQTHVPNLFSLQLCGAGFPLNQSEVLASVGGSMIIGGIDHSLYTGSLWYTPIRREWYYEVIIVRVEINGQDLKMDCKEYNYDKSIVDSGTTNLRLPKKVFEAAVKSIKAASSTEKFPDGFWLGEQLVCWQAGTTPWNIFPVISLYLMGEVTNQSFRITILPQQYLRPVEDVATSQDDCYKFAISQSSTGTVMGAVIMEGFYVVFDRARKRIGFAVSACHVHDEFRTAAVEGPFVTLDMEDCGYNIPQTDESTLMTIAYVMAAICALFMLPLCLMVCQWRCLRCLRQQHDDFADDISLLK

Compound	Ki [1]	Ki [2] [nM]
CC(C)C[C@H](NC(=O)[C@@H]1CC(=O)NC/C=C/CCCOC(=O)N[C@@H](C(C)C)C(=O)N1)[C@@H](O)C[C@@H](C)C(=O)N[C@H](C(=O)NCc1ccccc1)C(C)C	14.2 nM and 31 nM	
C=CCCCOC(=O)N[C@H](C(=O)N[C@@H](CC(=O)NCC=C)C(=O)N[C@@H](CC(C)C)[C@@H](O)C[C@@H](C)C(=O)N[C@H](C(=O)NCc1ccccc1)C(C)C)C(C)C	112 nM	
CC(C)C[C@H](NC(=O)[C@@H]1CC(=O)NC/C=C/COC(=O)N[C@@H](C(C)C)C(=O)N1)[C@@H](O)C[C@@H](C)C(=O)N[C@H](C(=O)NCc1ccccc1)C(C)C	87.2 nM	
CC(C)C[C@H](NC(=O)[C@@H]1CC(=O)NCCCCOC(=O)N[C@@H](C(C)C)C(=O)N1)[C@@H](O)C[C@@H](C)C(=O)N[C@H](C(=O)NCc1ccccc1)C(C)C	218 nM	
CC(C)C[C@H](NC(=O)[C@@H]1CC(=O)NCCCCCOC(=O)N[C@@H](C(C)C)C(=O)N1)[C@@H](O)C[C@@H](C)C(=O)N[C@H](C(=O)NCc1ccccc1)C(C)C	108 nM	
CC(C)C[C@H](NC(=O)[C@@H]1CC(=O)NC/C=C/CCOC(=O)N[C@@H](C(C)C)C(=O)N1)[C@@H](O)C[C@@H](C)C(=O)N[C@H](C(=O)NCc1ccccc1)C(C)C	28.4 nM	
CC(C)C[C@H](NC(=O)[C@@H]1CC(=O)NCCCCCCOC(=O)N[C@@H](C(C)C)C(=O)N1)[C@@H](O)C[C@@H](C)C(=O)N[C@H](C(=O)NCc1ccccc1)C(C)C		4.5
C=CCCOC(=O)N[C@H](C(=O)N[C@@H](CC(=O)NCC=C)C(=O)N[C@@H](CC(C)C)[C@@H](O)C[C@@H](C)C(=O)N[C@H](C(=O)NCc1ccccc1)C(C)C)C(C)C	61.4 nM	
